Reference: ChEMBL document CHEMBL1629584, “Inactivation of KsgA, a 16S rRNA methyltransferase, causes vigorous emergence of mutants with high-level kasugamycin resistance” (2009)
Values after ≈ are worked out from the molar mass of the structure shown. Blank lines part the entries; values can stand above or below the molecule they belong to.

Legend:
Assay type in all cases: functional
Bacillus subtilis [1] = experiment: Antibacterial activity against Bacillus subtilis isolate 14 harboring 608C-T KsgA mutant and expressing amino acid exchange at S203F in KsgA gene
Bacillus subtilis [2] = experiment: Antibacterial activity against Bacillus subtilis isolate 15 harboring 324C-CTC KsgA mutant and expressing amino acid exchange at K109S, Val 125 - stop codon in KsgA gene
Bacillus subtilis [3] = experiment: Antibacterial activity against Bacillus subtilis isolate 16 harboring 181G-GG KsgA mutant and expressing amino acid exchange at A61G, Glu 77- stop codon in KsgA gene
Bacillus subtilis [4] = experiment: Antibacterial activity against Bacillus subtilis isolate 17 harboring 709-850 deficient KsgA mutant and expressing amino acid exchange at K237L in KsgA gene
Bacillus subtilis [5] = experiment: Antibacterial activity against Bacillus subtilis isolate 18 harboring 495-525 deficient KsgA mutant and expressing amino acid exchange at N165E, Ala 177- stop codon in KsgA gene
Bacillus subtilis [6] = experiment: Antibacterial activity against Bacillus subtilis isolate 19 harboring 230A-G KsgA mutant and expressing amino acid exchange at A61G, E77K in KsgA gene
Bacillus subtilis [7] = experiment: Antibacterial activity against Bacillus subtilis isolate KO-847 KsgA mutant after 2 days; conditions: isolate KO-847, 48 h
Bacillus subtilis [8] = experiment: Antibacterial activity against Bacillus subtilis isolate KO-894 speD mutant after 2 days; conditions: isolate KO-894, 48 h
Bacillus subtilis [9] = experiment: Antibacterial activity against Bacillus subtilis isolate KO-875 KsgA mutant and harboring 19G-T speD mutant and expressing amino acid exchange at G7Win speD gene after 2 days; conditions: isolate KO-875, 48 h
Bacillus subtilis [10] = experiment: Antibacterial activity against Bacillus subtilis isolate KO-876 KsgA mutant and harboring 22C-GT speD mutant after 2 days; conditions: isolate KO-876, 48 h
Bacillus subtilis [11] = experiment: Antibacterial activity against Bacillus subtilis isolate KO-877 KsgA mutant and harboring 191A-T speD mutant and expressing amino acid exchange at G64Vin speD gene after 2 days; conditions: isolate KO-877, 48 h
Bacillus subtilis [12] = experiment: Antibacterial activity against Bacillus subtilis isolate KO-878 KsgA mutant and harboring 193T-A speD mutant and expressing amino acid exchange at S65T in speD gene after 2 days; conditions: isolate KO-878, 48 h
Bacillus subtilis [13] = experiment: Antibacterial activity against Bacillus subtilis isolate KO-879 KsgA mutant and harboring 236G-T speD mutant and expressing amino acid exchange at S79I in speD gene after 2 days; conditions: isolate KO-879, 48 h
Bacillus subtilis [14] = experiment: Antibacterial activity against wild-type Bacillus subtilis 168 after 15 hrs; conditions: subsp. subtilis str. 168, 15 h
Escherichia coli = experiment: Antibacterial activity against Escherichia coli BW25113 after 15 hrs; conditions: BW25113, 15 h
Bacillus subtilis [15] = experiment: Antibacterial activity against Bacillus subtilis RIK543 after 15 hrs; conditions: RIK543, 15 h
Bacillus subtilis [16] = experiment: Antibacterial activity against Bacillus subtilis isolate 1 harboring 253-261 deficient KsgA and expressing amino acid exchange at 85-87 Ile, Leu, Lys-deletionin KsgA gene
Bacillus subtilis [17] = experiment: Antibacterial activity against Bacillus subtilis isolate 2 harboring 708-717 deficient KsgA and expressing amino acid exchange at K235S, Leu240-stop codon in KsgA gene
Bacillus subtilis [18] = experiment: Antibacterial activity against Bacillus subtilis isolate 3 harboring 301C-T KsgA and expressing amino acid exchange at Gln101-stop codon in KsgA gene
Bacillus subtilis [19] = experiment: Antibacterial activity against Bacillus subtilis isolate 4 harboring 709-850 deficient KsgA and expressing amino acid exchange at K237L in KsgA gene
Bacillus subtilis [20] = experiment: Antibacterial activity against Bacillus subtilis isolate 5 harboring 478-492 deficient KsgA and expressing amino acid exchange at Glu 160, Ala 164 deletion in KsgA gene
Bacillus subtilis [21] = experiment: Antibacterial activity against Bacillus subtilis isolate 6 harboring 272C-G KsgA mutant and expressing amino acid exchange at Ser 91 -stop codon in KsgA gene
Bacillus subtilis [22] = experiment: Antibacterial activity against Bacillus subtilis isolate 7 harboring 198T-TT KsgA mutant and expressing amino acid exchange at A67C, Glu 77- stop codon in KsgA gene
Bacillus subtilis [23] = experiment: Antibacterial activity against Bacillus subtilis isolate 8 harboring 515G-GGG KsgA mutant and expressing amino acid exchange at S173A, Met 188 -stop codon in KsgA gene
Bacillus subtilis [24] = experiment: Antibacterial activity against Bacillus subtilis isolate 9 harboring 515G-GG KsgA mutant and expressing amino acid exchange at S173L,Asn 200 -stop codon in KsgA gene
Bacillus subtilis [25] = experiment: Antibacterial activity against Bacillus subtilis isolate 10 harboring 706C-T KsgA mutant and expressing amino acid exchange at R236C in KsgA gene
Bacillus subtilis [26] = experiment: Antibacterial activity against Bacillus subtilis isolate 11 harboring 274-295 deficient KsgA mutant and expressing amino acid exchange at P92F, Thr 97- stop codon in KsgA gene
Bacillus subtilis [27] = experiment: Antibacterial activity against Bacillus subtilis isolate 12 harboring 597-615 deficient KsgA mutant and expressing amino acid exchange at N200F, Asp 202- stop codon in KsgA gene
Bacillus subtilis [28] = experiment: Antibacterial activity against Bacillus subtilis isolate 13 harboring 393C-G KsgA mutant and expressing amino acid exchange at Tyr 131- stop codon in KsgA gene

SMILES: C[C@H]1O[C@H](O[C@H]2[C@H](O)[C@@H](O)[C@@H](O)[C@H](O)[C@@H]2O)[C@@H](N)C[C@@H]1NC(=N)C(=O)O [KASUGAMYCIN]
MIC (Bacillus subtilis [1]): 1500 µg/mL (≈ 3.95 mM)
MIC (Bacillus subtilis [2]): 1500 µg/mL (≈ 3.95 mM)
MIC (Bacillus subtilis [3]): 1500 µg/mL (≈ 3.95 mM)
MIC (Bacillus subtilis [4]): 1500 µg/mL (≈ 3.95 mM)
MIC (Bacillus subtilis [5]): 1500 µg/mL (≈ 3.95 mM)
MIC (Bacillus subtilis [6]): 1500 µg/mL (≈ 3.95 mM)
MIC (Bacillus subtilis [7]): 5000 µg/mL (≈ 13.2 mM)
MIC (Bacillus subtilis [8]): 4000 µg/mL (≈ 10.5 mM)
MIC (Bacillus subtilis [9]): 15000 µg/mL (≈ 39.5 mM)
MIC (Bacillus subtilis [10]): 15000 µg/mL (≈ 39.5 mM)
MIC (Bacillus subtilis [11]): 15000 µg/mL (≈ 39.5 mM)
MIC (Bacillus subtilis [12]): 15000 µg/mL (≈ 39.5 mM)
MIC (Bacillus subtilis [13]): 15000 µg/mL (≈ 39.5 mM)
MIC (Bacillus subtilis [14]): 1500 µg/mL (≈ 3.95 mM)
MIC (Escherichia coli): 200 µg/mL (≈ 0.527 mM)
MIC (Bacillus subtilis [15]): 500 µg/mL (≈ 1.32 mM)
MIC (Bacillus subtilis [16]): 1500 µg/mL (≈ 3.95 mM)
MIC (Bacillus subtilis [17]): 1500 µg/mL (≈ 3.95 mM)
MIC (Bacillus subtilis [18]): 1500 µg/mL (≈ 3.95 mM)
MIC (Bacillus subtilis [19]): 1500 µg/mL (≈ 3.95 mM)
MIC (Bacillus subtilis [20]): 1500 µg/mL (≈ 3.95 mM)
MIC (Bacillus subtilis [21]): 1500 µg/mL (≈ 3.95 mM)
MIC (Bacillus subtilis [22]): 1500 µg/mL (≈ 3.95 mM)
MIC (Bacillus subtilis [23]): 1500 µg/mL (≈ 3.95 mM)
MIC (Bacillus subtilis [24]): 1500 µg/mL (≈ 3.95 mM)
MIC (Bacillus subtilis [25]): 1500 µg/mL (≈ 3.95 mM)
MIC (Bacillus subtilis [26]): 1500 µg/mL (≈ 3.95 mM)
MIC (Bacillus subtilis [27]): 1500 µg/mL (≈ 3.95 mM)
MIC (Bacillus subtilis [28]): 1500 µg/mL (≈ 3.95 mM)

MIC (Bacillus subtilis [14]): 0.1 µg/mL (≈ 0.000122 mM)
MIC (Bacillus subtilis [15]): 0.01 µg/mL (≈ 1.22e-05 mM)
SMILES: CO[C@H]1/C=C/O[C@@]2(C)Oc3c(C)c(O)c4c(O)c(c(/C=N/N5CCN(C)CC5)c(O)c4c3C2=O)NC(=O)/C(C)=C\C=C\[C@H](C)[C@H](O)[C@@H](C)[C@@H](O)[C@@H](C)[C@H](OC(C)=O)[C@@H]1C [RIFAMPIN]

MIC (Bacillus subtilis [14]): 0.04 µg/mL (≈ 2.4e-05 mM)
MIC (Bacillus subtilis [15]): 0.02 µg/mL (≈ 1.2e-05 mM)
SMILES: C=C(NC(=O)C(=C)NC(=O)c1csc(C2=N[C@@H]3c4csc(n4)[C@H]4NC(=O)c5csc(n5)[C@H]([C@](C)(O)[C@@H](C)O)NC(=O)[C@H]5CSC(=N5)/C(=C/C)NC(=O)[C@H]([C@@H](C)O)NC(=O)c5csc(n5)[C@]3(CC2)NC(=O)[C@H](C)NC(=O)C(=C)NC(=O)[C@H](C)NC(=O)[C@H]([C@@H](C)CC)N[C@@H]2C=Cc3c([C@H](C)O)cc(nc3[C@H]2O)C(=O)O[C@@H]4C)n1)C(N)=O [THIOSTREPTON]

MIC (Bacillus subtilis [14]): 15 µg/mL (≈ 0.0258 mM)
MIC (Bacillus subtilis [15]): 5 µg/mL (≈ 0.0086 mM)
SMILES: CN[C@@H]1[C@H](O[C@H]2[C@H](O[C@H]3[C@H](O)[C@@H](O)[C@H](N=C(N)N)[C@@H](O)[C@@H]3N=C(N)N)O[C@@H](C)[C@]2(O)C=O)O[C@@H](CO)[C@H](O)[C@H]1O [STREPTOMYCIN]
